pEC50: −log10 of the molar value.
How the values were obtained:
[1] = test system: Wnt activity (Sp5-Luc reporter, human Sp5 promoter with eight TCF/LEF binding sites) in SW480 colon carcinoma cells; assay: Screening assay for Wnt activity: Sp5-Luc reporter gene assay in SW480 cells; assay type: cell-based
In short: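 SW480 cells stably carrying Sp5-Luc reporter (eight TCF/LEF sites) plated at 4,000/well in 1% FBS medium with compound (10-point 1:3 series from 10 μM, 0.1% DMSO) overnight at 37 °C. BrightGlo luminescence normalized to DMSO; EC50 by four-parameter fit, else % inhibition at 10 μM.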

[2] = test system: primary human mesenchymal stem cells (hMSCs); assay: Induction of chondrogenesis in primary human mesenchymal stem cells (hMSCs), nodule imaging with Rhodamine B / Nile Red; assay type: cell-based; settings: hMSCs chondrogenesis, TGF-β3 (10 ng/mL) as positive control, read-out: Max. Activity as % TGF-β3 activity
In short: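 Passage 3-6 hMSCs cultured 6 days at 37° C in incomplete chondrogenic induction medium with compound (2700-10 nM, 96-well; 5000-2.2 nM, 384-well; 0.03% DMSO), TGF-β3 10 ng/mL as positive control. Fixed nodules stained with Rhodamine B/Nile Red, imaged at 531/625 nm; nodule area normalized to DMSO wells for EC50, maximum activity and dose at maximum.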

pEC50 ([1]; 10-point dose-response starting from 10 μM, overnight incubation): < 5.00
Structure (SMILES): Cc1cnc(-c2ccc3[nH]nc(-c4nc5c(-c6cccc(F)c6)cncc5[nH]4)c3n2)s1 [Compound 1082, 2-(3-(7-(3-Fluorophenyl)-3H-imidazo[4,5-c]pyridin-2-yl)-1H-pyrazolo[4,3-b]pyridin-5-yl)-5-methylthiazole]
inhibition at 10 µM ([1]; 10 μM, read-out: percent inhibition at 10 μM (given for EC50 of >10 μM)): 27%
Emax [2]: 45%

Reference: US10188634B2, “3-(3H-imidazo[4,5-C]pyridin-2-yl)-1 H-pyrazolo[4,3-B]pyridines and therapeutic uses thereof” (Samumed, LLC, priority 2015, dated 2019)
